{"source": "patent US10167262B2", "about": "“Herbicidal substituted 3-arylpyrazoles” (FMC CORPORATION, priority 2014, dated 2019)", "test_in_all_cases": "Test A pre-/postemergence greenhouse herbicide test, visual injury rating 0-100", "format_in_all_cases": "in vivo", "key": {"[1]": {"system": "barnyardgrass (Echinochloa crus-galli)", "description": "(§1) Seeds of plant species selected from barnyardgrass (Echinochloa crus-galli), large (Lg) crabgrass (Digitaria sanguinalis), giant foxtail (Setaria faberii), morningglory (Ipomoea spp.), pigweed (Amaranthus retroflexus), velvetleaf (Abutilon theophrasti), wheat (Triticum aestivum), and corn (Zea mays) were planted into a blend of loam soil and sand and treated preemergence with a directed soil spray using test chemicals formulated in a non-phytotoxic solvent mixture which included a surfactant. At the same time these species were also treated with postemergence applications of test chemicals formulated in the same manner. Plants ranged in height from 2 to 10 cm and were in the one- to two-leaf stage for the postemergence treatment. Treated plants and untreated controls were maintained in a greenhouse for approximately 10 days, after which time all treated plants were compared to untreated controls and visually evaluated for injury. Plant response ratings, summarized in Table A, are based on a 0 to 100 scale where 0 is no effect and 100 is complete control. A dash (-) response means no test result."}, "corn (Zea mays)": {"system": "corn (Zea mays)", "description": "as §1"}, "[2]": {"system": "giant foxtail (Setaria faberii)", "description": "as §1"}, "[3]": {"system": "large (Lg) crabgrass (Digitaria sanguinalis)", "description": "as §1"}, "[4]": {"system": "morningglory (Ipomoea spp.)", "description": "as §1"}, "[5]": {"system": "pigweed (Amaranthus retroflexus)", "description": "as §1"}, "[6]": {"system": "velvetleaf (Abutilon theophrasti)", "description": "as §1"}, "[7]": {"system": "wheat (Triticum aestivum)", "description": "as §1"}}, "data": [{"smiles": "Clc1cc(Cl)cc(-c2n[nH]cc2C2(c3ccccc3)SCCCS2)c1", "note": "[Compound 63]", "values": [{"measurement": "Plant response rating (0 to 100 scale), Barnyardgrass", "setting": "[1]; Postemergence, 125 g ai/ha", "value": 0}, {"measurement": "Plant response rating (0 to 100 scale), Barnyardgrass", "setting": "[1]; Postemergence, 500 g ai/ha", "value": 0}, {"measurement": "Barnyardgrass plant response rating (0 = no effect, 100 = complete control)", "setting": "[1]; Preemergence, 125 g ai/ha", "value": 0}, {"measurement": "Plant response rating (0 to 100 scale), Barnyardgrass", "setting": "[1]; Preemergence, 500 g ai/ha", "value": 0}, {"measurement": "Plant response rating (0 to 100 scale), Corn", "setting": "corn (Zea mays); Postemergence, 125 g ai/ha", "value": 0}, {"measurement": "Plant response rating (0 to 100 scale), Corn", "setting": "corn (Zea mays); Postemergence, 500 g ai/ha", "value": 0}, {"measurement": "Corn plant response rating (0 = no effect, 100 = complete control)", "setting": "corn (Zea mays); Preemergence, 125 g ai/ha", "value": 0}, {"measurement": "Plant response rating (0 to 100 scale), Corn", "setting": "corn (Zea mays); Preemergence, 500 g ai/ha", "value": 0}, {"measurement": "Plant response rating (0 to 100 scale), Foxtail, Giant", "setting": "[2]; Postemergence, 125 g ai/ha", "value": 0}, {"measurement": "Plant response rating (0 to 100 scale), Foxtail, Giant", "setting": "[2]; Postemergence, 500 g ai/ha", "value": 0}, {"measurement": "Foxtail, Giant plant response rating (0 = no effect, 100 = complete control)", "setting": "[2]; Preemergence, 125 g ai/ha", "value": 0}, {"measurement": "Plant response rating (0 to 100 scale), Foxtail, Giant", "setting": "[2]; Preemergence, 500 g ai/ha", "value": 0}, {"measurement": "Plant response rating (0 to 100 scale), Crabgrass, Large", "setting": "[3]; Postemergence, 125 g ai/ha", "value": 0}, {"measurement": "Plant response rating (0 to 100 scale), Crabgrass, Large", "setting": "[3]; Postemergence, 500 g ai/ha", "value": 0}, {"measurement": "Crabgrass, Large plant response rating (0 = no effect, 100 = complete control)", "setting": "[3]; Preemergence, 125 g ai/ha", "value": 0}, {"measurement": "Plant response rating (0 to 100 scale), Crabgrass, Large", "setting": "[3]; Preemergence, 500 g ai/ha", "value": 0}, {"measurement": "Plant response rating (0 to 100 scale), Morningglory", "setting": "[4]; Postemergence, 125 g ai/ha", "value": 0}, {"measurement": "Plant response rating (0 to 100 scale), Morningglory", "setting": "[4]; Postemergence, 500 g ai/ha", "value": 0}, {"measurement": "Morningglory plant response rating (0 = no effect, 100 = complete control)", "setting": "[4]; Preemergence, 125 g ai/ha", "value": 0}, {"measurement": "Plant response rating (0 to 100 scale), Morningglory", "setting": "[4]; Preemergence, 500 g ai/ha", "value": 0}, {"measurement": "Plant response rating (0 to 100 scale), Pigweed", "setting": "[5]; Postemergence, 125 g ai/ha", "value": 20}, {"measurement": "Plant response rating (0 to 100 scale), Pigweed", "setting": "[5]; Postemergence, 500 g ai/ha", "value": 80}, {"measurement": "Pigweed plant response rating (0 = no effect, 100 = complete control)", "setting": "[5]; Preemergence, 125 g ai/ha", "value": 0}, {"measurement": "Plant response rating (0 to 100 scale), Pigweed", "setting": "[5]; Preemergence, 500 g ai/ha", "value": 60}, {"measurement": "Plant response rating (0 to 100 scale), Velvetleaf", "setting": "[6]; Postemergence, 125 g ai/ha", "value": 10}, {"measurement": "Plant response rating (0 to 100 scale), Velvetleaf", "setting": "[6]; Postemergence, 500 g ai/ha", "value": 60}, {"measurement": "Velvetleaf plant response rating (0 = no effect, 100 = complete control)", "setting": "[6]; Preemergence, 125 g ai/ha", "value": 0}, {"measurement": "Plant response rating (0 to 100 scale), Velvetleaf", "setting": "[6]; Preemergence, 500 g ai/ha", "value": 0}, {"measurement": "Plant response rating (0 to 100 scale), Wheat", "setting": "[7]; Postemergence, 125 g ai/ha", "value": 0}, {"measurement": "Plant response rating (0 to 100 scale), Wheat", "setting": "[7]; Postemergence, 500 g ai/ha", "value": 0}, {"measurement": "Wheat plant response rating (0 = no effect, 100 = complete control)", "setting": "[7]; Preemergence, 125 g ai/ha", "value": 0}]}, {"smiles": "Brc1cc(Br)cc(-c2n[nH]cc2C2(c3ccccc3)SCCS2)c1", "note": "[Compound 62]", "values": [{"measurement": "Plant response rating (0 to 100 scale), Barnyardgrass", "setting": "[1]; Postemergence, 1000 g ai/ha", "value": 0}, {"measurement": "Plant response rating (0 to 100 scale), Barnyardgrass", "setting": "[1]; Preemergence, 1000 g ai/ha", "value": 0}, {"measurement": "Plant response rating (0 to 100 scale), Corn", "setting": "corn (Zea mays); Postemergence, 1000 g ai/ha", "value": 0}, {"measurement": "Plant response rating (0 to 100 scale), Corn", "setting": "corn (Zea mays); Preemergence, 1000 g ai/ha", "value": 0}, {"measurement": "Plant response rating (0 to 100 scale), Foxtail, Giant", "setting": "[2]; Postemergence, 1000 g ai/ha", "value": 0}, {"measurement": "Plant response rating (0 to 100 scale), Foxtail, Giant", "setting": "[2]; Preemergence, 1000 g ai/ha", "value": 0}, {"measurement": "Plant response rating (0 to 100 scale), Crabgrass, Large", "setting": "[3]; Postemergence, 1000 g ai/ha", "value": 0}, {"measurement": "Plant response rating (0 to 100 scale), Crabgrass, Large", "setting": "[3]; Preemergence, 1000 g ai/ha", "value": 0}, {"measurement": "Plant response rating (0 to 100 scale), Pigweed", "setting": "[5]; Postemergence, 1000 g ai/ha", "value": 100}, {"measurement": "Plant response rating (0 to 100 scale), Pigweed", "setting": "[5]; Preemergence, 1000 g ai/ha", "value": 80}, {"measurement": "Plant response rating (0 to 100 scale), Velvetleaf", "setting": "[6]; Postemergence, 1000 g ai/ha", "value": 90}, {"measurement": "Plant response rating (0 to 100 scale), Velvetleaf", "setting": "[6]; Preemergence, 1000 g ai/ha", "value": 60}, {"measurement": "Plant response rating (0 to 100 scale), Wheat", "setting": "[7]; Postemergence, 1000 g ai/ha", "value": 0}, {"measurement": "Plant response rating (0 to 100 scale), Wheat", "setting": "[7]; Preemergence, 1000 g ai/ha", "value": 0}]}, {"smiles": "N=C(c1ccccc1)c1c[nH]nc1-c1cc(Cl)cc(Cl)c1", "note": "[Compound 68]", "values": [{"measurement": "Plant response rating (0 to 100 scale), Barnyardgrass", "setting": "[1]; Postemergence, 1000 g ai/ha", "value": 0}, {"measurement": "Plant response rating (0 to 100 scale), Barnyardgrass", "setting": "[1]; Preemergence, 1000 g ai/ha", "value": 0}, {"measurement": "Plant response rating (0 to 100 scale), Corn", "setting": "corn (Zea mays); Postemergence, 1000 g ai/ha", "value": 0}, {"measurement": "Plant response rating (0 to 100 scale), Corn", "setting": "corn (Zea mays); Preemergence, 1000 g ai/ha", "value": 0}, {"measurement": "Plant response rating (0 to 100 scale), Foxtail, Giant", "setting": "[2]; Postemergence, 1000 g ai/ha", "value": 0}, {"measurement": "Plant response rating (0 to 100 scale), Foxtail, Giant", "setting": "[2]; Preemergence, 1000 g ai/ha", "value": 0}, {"measurement": "Plant response rating (0 to 100 scale), Crabgrass, Large", "setting": "[3]; Postemergence, 1000 g ai/ha", "value": 0}, {"measurement": "Plant response rating (0 to 100 scale), Crabgrass, Large", "setting": "[3]; Preemergence, 1000 g ai/ha", "value": 0}, {"measurement": "Plant response rating (0 to 100 scale), Morningglory", "setting": "[4]; Postemergence, 1000 g ai/ha", "value": 0}, {"measurement": "Plant response rating (0 to 100 scale), Morningglory", "setting": "[4]; Preemergence, 1000 g ai/ha", "value": 0}, {"measurement": "Plant response rating (0 to 100 scale), Pigweed", "setting": "[5]; Postemergence, 1000 g ai/ha", "value": 100}, {"measurement": "Plant response rating (0 to 100 scale), Pigweed", "setting": "[5]; Preemergence, 1000 g ai/ha", "value": 100}, {"measurement": "Plant response rating (0 to 100 scale), Velvetleaf", "setting": "[6]; Postemergence, 1000 g ai/ha", "value": 90}, {"measurement": "Plant response rating (0 to 100 scale), Velvetleaf", "setting": "[6]; Preemergence, 1000 g ai/ha", "value": 100}, {"measurement": "Plant response rating (0 to 100 scale), Wheat", "setting": "[7]; Postemergence, 1000 g ai/ha", "value": 0}, {"measurement": "Plant response rating (0 to 100 scale), Wheat", "setting": "[7]; Preemergence, 1000 g ai/ha", "value": 0}]}, {"smiles": "ON=C(c1ccccc1)c1c[nH]nc1-c1cc(Br)cc(Br)c1", "note": "[Compound 49]", "values": [{"measurement": "Plant response rating (0 to 100 scale), Barnyardgrass", "setting": "[1]; Postemergence, 1000 g ai/ha", "value": 0}, {"measurement": "Plant response rating (0 to 100 scale), Barnyardgrass", "setting": "[1]; Preemergence, 1000 g ai/ha", "value": 0}, {"measurement": "Plant response rating (0 to 100 scale), Corn", "setting": "corn (Zea mays); Postemergence, 1000 g ai/ha", "value": 0}, {"measurement": "Plant response rating (0 to 100 scale), Corn", "setting": "corn (Zea mays); Preemergence, 1000 g ai/ha", "value": 0}, {"measurement": "Plant response rating (0 to 100 scale), Foxtail, Giant", "setting": "[2]; Postemergence, 1000 g ai/ha", "value": 0}, {"measurement": "Plant response rating (0 to 100 scale), Foxtail, Giant", "setting": "[2]; Preemergence, 1000 g ai/ha", "value": 10}, {"measurement": "Plant response rating (0 to 100 scale), Crabgrass, Large", "setting": "[3]; Postemergence, 1000 g ai/ha", "value": 0}, {"measurement": "Plant response rating (0 to 100 scale), Crabgrass, Large", "setting": "[3]; Preemergence, 1000 g ai/ha", "value": 0}, {"measurement": "Plant response rating (0 to 100 scale), Morningglory", "setting": "[4]; Postemergence, 1000 g ai/ha", "value": 0}, {"measurement": "Plant response rating (0 to 100 scale), Morningglory", "setting": "[4]; Preemergence, 1000 g ai/ha", "value": 0}, {"measurement": "Plant response rating (0 to 100 scale), Pigweed", "setting": "[5]; Postemergence, 1000 g ai/ha", "value": 90}, {"measurement": "Plant response rating (0 to 100 scale), Pigweed", "setting": "[5]; Preemergence, 1000 g ai/ha", "value": 80}, {"measurement": "Plant response rating (0 to 100 scale), Velvetleaf", "setting": "[6]; Postemergence, 1000 g ai/ha", "value": 80}, {"measurement": "Plant response rating (0 to 100 scale), Velvetleaf", "setting": "[6]; Preemergence, 1000 g ai/ha", "value": 0}, {"measurement": "Plant response rating (0 to 100 scale), Wheat", "setting": "[7]; Postemergence, 1000 g ai/ha", "value": 0}, {"measurement": "Plant response rating (0 to 100 scale), Wheat", "setting": "[7]; Preemergence, 1000 g ai/ha", "value": 0}]}]}
